Measured values: patent US20030113385A1, “Use of combinations of active agents consisting of antimicrobially active substances and plant extracts containing terpene in veterinary medicine” (Boehringer Ingelheim Vetmedica GmbH, priority 1998, published 2003)

Experiments:
Staphylococcus aureus [1] = assay: MIC on growth of Staphylococcus aureus in nutrient solution (ISB), microtitre plates, turbidity; type: cell-based; conditions: for MIC: Staphylococcus aureus, read-out: average MIC (+standard deviation)
Experimental: (§1) The sensitivity tests and the experiments carried out with combinations of active agents—using the so-called Checkerboard design—in broth (nutrient medium) and milk, were carried out using microtitre plates. Three capsule-positive and three capsule-negative strains of Staphylococcus aureus were used. The so-called MIC value was determined by fluorometric methods (in milk).
(§2) The concentration of the standard solution of the tea tree oil used was 4% vol/vol.
(§3) The highest concentration used in the tests was 1/10th of the original standard solution, i.e. 0.4 vol-%.
1 Effect of tea tree oil (Ttoil) on the growth of Staphylococcus aureus in nutrient solution (ISB).
The results are given as the average minimum inhibitory concentration from four repeats
(§4) 3 Susceptibility of Staphylococcus aureus to selected antibacterial agents in nutrient medium (ISB) and milk. […] Each strain was tested […].

Staphylococcus aureus [2] = assay: MIC on growth of Staphylococcus aureus in milk, microtitre plates, fluorometric; type: cell-based; conditions: for MIC: Staphylococcus aureus, read-out: average MIC (+standard deviation)
Experimental: as §1, §2, §3
2 Effect of tea tree oil on the growth of Staphylococcus aureus in normal milk. Each strain was tested four times.
as §4

[3] = three capsule negative Staph. aureus strains
[4] = three capsule positive Staph. aureus strains

Row | Compound | MIC (Staphylococcus aureus [1]; [3]) | MIC (Staphylococcus aureus [1]; [4]) | MIC (Staphylococcus aureus [2]; [3]) | MIC (Staphylococcus aureus [2]; [4]) | MIC range (in brackets) (Staphylococcus aureus [1]; [3]) | MIC range (in brackets) (Staphylococcus aureus [1]; [4]) | MIC range (in brackets) (Staphylococcus aureus [2]; [3]) | average MIC (+standard deviation) (Staphylococcus aureus [1]; [3]) | average MIC (+standard deviation) (Staphylococcus aureus [1]; [4]) | average MIC (+standard deviation) (Staphylococcus aureus [2]; [3]) | MIC range (in brackets) (Staphylococcus aureus [2]; [4]) | average MIC (+standard deviation) (Staphylococcus aureus [2]; [4])
1 | CC1(C)S[C@@H]2[C@H](NC(=O)[C@H](N)c3ccccc3)C(=O)N2[C@H]1C(=O)O [Ampicillin, ampicillin] | 0.198 ± 0.018 mg/L | 0.188 ± 0.019 mg/L | 0.104 ± 0.009 mg/L | 0.12 ± 0.005 mg/L |  |  |  |  |  |  |  | 
2 | CC(=O)OCC1=C(C(=O)O)N2C(=O)[C@@H](NC(=O)Cc3cccs3)[C@H]2SC1 [Cephalothin, cephalothin] | 0.188 ± 0.019 mg/L | 0.188 ± 0.019 mg/L | 0.167 ± 0.018 mg/L | 0.25 mg/L | (0.125-0.25) μg/ml | (0.125-0.25) μg/ml | (0.125-0.25) μg/ml |  |  |  |  | 
3 | CC1(C)S[C@@H]2[C@H](NC(=O)Cc3ccccc3)C(=O)N2[C@H]1C(=O)O [Penicillin G, penicillin G] |  |  |  |  | (0.025-0.05) μg/ml | (0.025-0.05) μg/ml | (0.013-0.05) μg/ml | 0.033 ± 0.004 mg/L | 0.035 ± 0.004 mg/L | 0.031 ± 0.005 mg/L | (0.013-0.025) μg/ml | 0.022 ± 0.002 mg/L
4 | spiramycin |  |  |  |  | (10-20) μg/ml | (10-20) μg/ml | (6.25-50) μg/ml | 15 ± 1.5 mg/L | 15.83 ± 1.49 mg/L | 25.52 ± 4.82 mg/L | (12.5-50) μg/ml | 25 ± 3.77 mg/L
